Test results reported in US12357608B2, “Methods and compositions utilizing RRx-001 combination therapy for radioprotection” (priority 2018, dated 2025).
Entries after “also recorded” stand apart in the source; their conditions may differ.

How the values were obtained:
[1] = system: human normal bone marrow mesenchymal stem cells (hMSC); assay: Western blotting of antioxidant response element (ARE) proteins in irradiated hMSC; format: cell-based; conditions: 5 mM RRx-001 16 hours
Method: Antioxidant response element (ARE) genes such as heme oxygenase 1 (HO-1), NAD(P)H Dehydrogenase [Quinone] 1 (NQO-1) and Superoxide Dismutase (SOD) are involved in the detoxification and elimination of reactive oxidants.
(§1) Expression of ARE proteins was assayed in hMSC, macrophages, and monocytes following in vitro irradiation of the cells, which were pretreated with RRx-001 or vehicle. Protein expression was assayed by Western blotting and protein quantification.
(§2) hMSC were treated for 16 hours with […] RRx-001 or the vehicle control (0.05% DMSO), irradiated at 10 Gy or sham-irradiated and the protein collected 8 or 24 hours post-sham or irradiation. Human monocytic leukemic THP-1 and U937 cells were differentiated into macrophages with 50 nM Phorbol 12-myristate 13-acetate (PMA) for 24 hours before treatment. Differentiated and non-differentiated cells were treated with […] RRx-001 or 0.05% DMSO (vehicle control) for 16 hours prior to radiation. The cells were irradiated at 5 Gy or sham-irradiated and collected 4-8 hours later for both analysis. For each experiment, duplicates of each sample were run.

superoxide dismutase = assay: Superoxide dismutase activity assay in hMSC; format: cell-based, human; conditions: 5 mM RRx-001 16 hours; 8 hours after 10 Gy irradiation
Method: The activity of superoxide dismutase activity was also assayed in hMSC. hMSC were treated for 16 hours with […] RRx-001 or vehicle, irradiated at 10 Gy or sham-irradiated and whole cell homogenate collected according to the manufacture's protocol. The assay measures the activity of all three forms of SOD. The amount of SOD activity (U/mL) was normalized to protein levels.

U937 cells = assay: Western blotting of ARE proteins in U937 monocytes and macrophages; format: cell-based, human; conditions: 3 mM RRx-001 16 hours
Method: as §1, §2

THP-1 cells [2] = assay: Western blotting of ARE proteins in THP-1 monocytes and macrophages; format: cell-based, human; conditions: THP-1 macrophages; 3 mM RRx-001 16 hours
Method: as §1, §2

THP-1 cells [3] = assay: Cytokine array of irradiated THP-1 monocytes and macrophages; format: cell-based, human
Method: A cytokine array was employed to examine cytokine expression following in vitro irradiation of human monocytic leukemic THP-1 cells. THP-1 cells were differentiated into macrophages with 50 nM Phorbol 12-myristate 13-acetate (PMA) for 24 hours before treatment. Differentiated and non-differentiated cells were treated with […] RRx-001 or 0.05% DMSO (vehicle control) for 16 hours prior to radiation. The cells were irradiated at 5 Gy or sham-irradiated and collected 4-8 hours later for both analysis. For the cytokine analysis, cell media was collected and blotted onto Proteome Profiler Human Cytokine Arrays (R&D Systems, Inc.) according to the manufacturer's protocol.

[4] = system: male Syrian Golden Hamsters; assay: Oral mucositis induced by acute radiation in hamsters; format: in vivo
Method: Fifty-six (56) male Syrian Golden Hamsters were used in the study. Mucositis was induced by administering an acute radiation dose of 40 Gy directed to the left buccal cheek pouch on Day 0 at a rate of 2-2.5 Gy/min. Mucositis was evaluated clinically starting on Day 6 and continuing on alternate days until Day 28. Hamsters reaching a mucositis severity score of 4 or higher received buprenorphine (0.5 mg/kg) SC twice a day for 48 hours or until score dropped below 4.
Dosing was scheduled as follows: for animals in Groups 1-4, animals were dosed with RRx-001 (1, 3, or 10 mg/kg) or vehicle (1:2 DMA:PEG400 vol:vol ratio) once a day (QD) on Days −4, −1, 1, 4, 7, 11, 14, 18, 21, and 25 via intraperitoneal (IP) administration; animals in Groups 5-7 were dosed QD with RRx-001 (1, 3, or 10 mg/kg) on Days −4, −1, 1, 8, 15, and 22.
The significance of differences observed between the control and treatment group was evaluated by comparing the days with mucositis scores≥3 and <3 between groups using chi-square analysis. […] The percentage of animal days with a score of ≥3 in the Vehicle Group was 57.29%. […] There were numerous days where animals dosed with RRx-001 had percent ulceration days that were lower (which can be interpreted as ameliorative of disease severity) in comparison to vehicle-dosed animals.
An analysis of the severity of mucositis was performed using the Mann-Whitney rank sum analysis to compare the visual mucositis scores for the treatment group to the Vehicle control group on each day of evaluation. In this analysis, 2 days of significant reduction in the mucositis score are generally required before it is regarded as meaningful.
This evaluation was intended to clarify which days of treatment had its maximal impact on the course of ulcerative mucositis. There were numerous days where animals dosed with RRx-001 had percent ulceration days that were lower (which can be interpreted as ameliorative of disease severity) in comparison to vehicle-dosed animals.

Nrf2 = conditions: tumor cells exposed to RRx-001; Ning et al., Oncotarget 2015; cited from earlier work

## O=C(CBr)N1CC([N+](=O)[O-])([N+](=O)[O-])C1 [RRx-001, 2-bromo-1-(3,3-dinitroazetidin-1-yl)ethan-1-one]
[1]; 10 Gy irradiation, 8 hours
  SOD1 and 2 expression: slight increase
[1]; 24 hours post-sham or irradiation
  HO-1 expression increase: 2-3.5 fold
[1]; all groups
  NQO-1 expression: slightly reduced
[1]; sham and 10 Gy irradiated groups, 8 hours post-sham or irradiation
  HO-1 expression increase: 22-26 fold
Superoxide dismutase
  Superoxide Dismutase Activity: did not increase
U937 cells; U937 macrophages
  NQO-1 expression: no change
  SOD-1 expression: no change
U937 cells; U937 macrophages, sham and irradiated groups
  HO-1 production: increased HO-1 production
U937 cells; U937 monocyte fraction
  HO-1 expression: significant increase in HO-1
THP-1 cells [2]
  HO-1 expression: no significant increase in HO-1
THP-1 cells [3]; THP-1 macrophage fraction, sham and 5 Gy irradiated, 3 mM RRx-001 16 hours
  cytokines involved in inflammation: reduction in cytokines involved in inflammation
THP-1 cells [3]; THP-1 macrophages
  pro-inflammatory chemokine IL-8: reduction
THP-1 cells [3]; THP-1 monocytes, 3 mM RRx-001 16 hours
  CCL5/RANTES expression: induction; also recorded: upregulation
[4]; 1 mg/kg IP
  daily mucositis scores compared to the Vehicle control group: multiple days of significant improvement in mucositis scores
[4]; 10 mg/kg IP
  daily mucositis scores compared to the Vehicle control group: multiple days of significant improvement in mucositis scores
[4]; 10 mg/kg IP, Group 2, dosed Days −4, −1, 1, 40 Gy
  mean daily mucositis scores: modest but significant enhancement of disease healing
[4]; 10 mg/kg IP, Groups 2 and 5, after cessation of dosing
  body weight by study termination: rebounded back to be in line with other groups
[4]; 10 mg/kg IP, Groups 2 and 5, dosing discontinued after Day 1
  tolerability of the highest dose: adverse side effects
[4]; 10 mg/kg IP, Groups 2 and 5, during study
  body weight: lower weights than all other groups
[4]; 10 mg/kg, Groups 2 and 5, only dosed on Days −4, −1, and 1
  percent ulceration: best response in decreasing percent ulceration
[4]; 3 and 1 mg/kg, 1 mg/kg, Group 4 vs Group 7
  percent days of ulceration, twice weekly dosing vs one time per week: more beneficial effects on percent days of ulceration
[4]; Group 2, 10 mg/kg on Days −4, −1, 1, p<0.01
  percentage of days with a mucositis score of ≥3 in comparison to the Vehicle Group: statistically lower
[4]; all groups except Groups 2 and 5 (1 and 3 mg/kg IP)
  body weight: steadily gained weight
[4]; all other treatment groups (Groups 3-7)
  mean daily mucositis scores: tracked fairly close to each other, and with Vehicle dosed controls
[4]; numerous days
  percent ulceration days in comparison to vehicle-dosed animals: lower
Nrf2
  nuclear presence of transcription factor Nrf2: increased nuclear presence
